Measurements from patent publication US10189887B2, “Polypeptides and uses thereof for reducing CD95-mediated cell motility” (INSERM (INSTITUT NATIONAL DE LA SANTÉ ET DE LA RECHERCHE …, priority 2014, dated 2019).
Ends that are not written are not given here.

How the values were obtained:
[1] = system: CD95-mediated Ca^2+ response; assay: Calcium response to cl-CD95L in Jurkat cells (Fura2/FuraPE3 video imaging); format: cell-based; details: Jurkat pre-incubated 1 hr, 10 μM peptide; 100 ng/ml cl-CD95L
Method: (§1) Cells were loaded with Fura2-AM (1 μM) at resting temperature for 30 min in Hank's Balanced Salt Solution (HBSS). After washing with HBSS, the cells were incubated for 15 min in the absence of Fura2-AM to complete de-esterification of the dye. Cells were placed in a thermostated chamber (37° C.) of an inverted epifluorescence microscope (Olympus IX70) equipped with a ×40, UApo/340-1.15 W water-immersion objective (Olympus), and fluorescence micrograph images were captured at 510 nm and at 12-bit resolution by a fast-scan camera (CoolSNAP fx Monochrome, Photometrics). To minimize UV light exposure, 4×4 binning function was used. Fura2-AM was alternately excited at 340 and 380 nm, and ratios of the resulting images (excitations at 340 and 380 nm and emission filter at 520 nm) were produced at constant intervals (5 s or 10 s according to the stimulus). […] Fluorescent images were pseudocolored using the IMD display mode in MetaFluor and assembled without further manipulation in Photoshop (Adobe). Raw data were acquired with MetaFluor and graphed in Origin (OriginLab). [Ca^2+]i was calculated using the following equation: [Ca^2+]i=Kd(R−Rmin)/(R−Rmax)×Sf2/Sf1, where Kd is the Fura2-AM dissociation constant at the two excitation wavelengths (F340/F380); Rmin is the fluorescence ratio in the presence of minimal calcium, obtained by chelating Ca^2+ with 10 mM EGTA; Rmax is the fluorescence ratio in the presence of excess calcium, obtained by treating cells with 1 μM ionomycin; Sf2 is the fluorescence of the Ca^2+-free form; and Sf1 is the fluorescence of the Ca^2+-bound form of Fura2-AM at excitation wavelengths of 380 and 340 nm, respectively. In some experiments cells were placed in a Ca^2+-free medium consisting of the HBSS described above in which CaCl2 was omitted and 100 μM EGTA was added in order to chelate residual Ca^2+ ions. This medium was added to the cells just before recording to avoid leak of the intracellular calcium stores.
T cells were loaded with Fura-PE3-AM (1 μM) at room temperature for 30 min in Hank's Balanced Salt Solution (HBSS). After washing, the cells were incubated for 15 min in the absence of Fura-PE3-AM to complete de-esterification of the dye. Cells were placed in the temperature controlled chamber (37° C.) of an inverted epifluorescence microscope (Olympus IX70) equipped with an ×40 UApo/340-1.15 W water-immersion objective (Olympus), and fluorescence micrograph images were captured at 510 nm and 12-bit resolution by a fast-scan camera (CoolSNAP fx Monochrome, Photometrics). To minimize UV light exposure, a 4×4 binning function was used. Fura-PE3 was alternately excited at 340 and 380 nm, and the ratios of the resulting images (emission filter at 520 nm) were produced at constant intervals (10 seconds). The Fura-PE3 ratio (Fratio 340/380) images were analyzed offline with Universal Imaging software, including Metafluor and Metamorph. Fratio reflects the intracellular Ca^2+ concentration changes. Each experiment was repeated 3 times, and the average of more than 20 single-cell traces was analyzed.

[2] = system: CD95-mediated Ca^2+ response; assay: Calcium response to cl-CD95L in MEF; format: cell-based; details: MEFs pre-incubated 1 hr, 10 μM peptide; 100 ng/ml cl-CD95L
Method: Cells were loaded with Fura2-AM (1 μM) at resting temperature for 30 min in Hank's Balanced Salt Solution (HBSS). After washing with HBSS, the cells were incubated for 15 min in the absence of Fura2-AM to complete de-esterification of the dye. Cells were placed in a thermostated chamber (37° C.) of an inverted epifluorescence microscope (Olympus IX70) equipped with a ×40, UApo/340-1.15 W water-immersion objective (Olympus), and fluorescence micrograph images were captured at 510 nm and at 12-bit resolution by a fast-scan camera (CoolSNAP fx Monochrome, Photometrics). To minimize UV light exposure, 4×4 binning function was used. Fura2-AM was alternately excited at 340 and 380 nm, and ratios of the resulting images (excitations at 340 and 380 nm and emission filter at 520 nm) were produced at constant intervals (5 s or 10 s according to the stimulus). […] Fluorescent images were pseudocolored using the IMD display mode in MetaFluor and assembled without further manipulation in Photoshop (Adobe). Raw data were acquired with MetaFluor and graphed in Origin (OriginLab). […]

[3] = system: CD95-mediated Ca^2+ response; assay: Calcium response to cl-CD95L in activated PBL; format: cell-based, human; details: activated PBL pre-incubated 1 hr, 10 μM peptide; 100 ng/ml cl-CD95L
Method: as §1
All cells were purchased from ATCC (Molsheim Cedex, France). T leukemic cell lines CEM, H9 and Jurkat were cultured in RPMI supplemented with 8% heat-inactivated FCS (v/v) and 2 mM L-glutamine at 37° C. in a 5% CO2 incubator. CEM-IRC cell expressing a low amount of plasma membrane CD95 was described in (Beneteau et al., 2007; Beneteau et al., 2008). […]
T cells were loaded with Fura-PE3-AM (1 μM) at room temperature for 30 min in Hank's Balanced Salt Solution (HBSS). […] Cells were placed in the temperature controlled chamber (37° C.) of an inverted epifluorescence microscope (Olympus IX70) equipped with an ×40 UApo/340-1.15 W water-immersion objective (Olympus), and fluorescence micrograph images were captured at 510 nm and 12-bit resolution by a fast-scan camera (CoolSNAP fx Monochrome, Photometrics). […]

[4] = molecular target: T1, CD95/PLCγ1 (Homo sapiens, UniProt P19174); assay: PLCγ1 recruitment to CD95 (immunoprecipitation and immunoblotting); format: cell-based; details: HEK cells co-transfected with PLCγ1 and construct
T1 construct: endogenous in cells; host or cells: CEM (human leukemic T-cell line)
T1 sequence (P19174 2-1290 limits assumed): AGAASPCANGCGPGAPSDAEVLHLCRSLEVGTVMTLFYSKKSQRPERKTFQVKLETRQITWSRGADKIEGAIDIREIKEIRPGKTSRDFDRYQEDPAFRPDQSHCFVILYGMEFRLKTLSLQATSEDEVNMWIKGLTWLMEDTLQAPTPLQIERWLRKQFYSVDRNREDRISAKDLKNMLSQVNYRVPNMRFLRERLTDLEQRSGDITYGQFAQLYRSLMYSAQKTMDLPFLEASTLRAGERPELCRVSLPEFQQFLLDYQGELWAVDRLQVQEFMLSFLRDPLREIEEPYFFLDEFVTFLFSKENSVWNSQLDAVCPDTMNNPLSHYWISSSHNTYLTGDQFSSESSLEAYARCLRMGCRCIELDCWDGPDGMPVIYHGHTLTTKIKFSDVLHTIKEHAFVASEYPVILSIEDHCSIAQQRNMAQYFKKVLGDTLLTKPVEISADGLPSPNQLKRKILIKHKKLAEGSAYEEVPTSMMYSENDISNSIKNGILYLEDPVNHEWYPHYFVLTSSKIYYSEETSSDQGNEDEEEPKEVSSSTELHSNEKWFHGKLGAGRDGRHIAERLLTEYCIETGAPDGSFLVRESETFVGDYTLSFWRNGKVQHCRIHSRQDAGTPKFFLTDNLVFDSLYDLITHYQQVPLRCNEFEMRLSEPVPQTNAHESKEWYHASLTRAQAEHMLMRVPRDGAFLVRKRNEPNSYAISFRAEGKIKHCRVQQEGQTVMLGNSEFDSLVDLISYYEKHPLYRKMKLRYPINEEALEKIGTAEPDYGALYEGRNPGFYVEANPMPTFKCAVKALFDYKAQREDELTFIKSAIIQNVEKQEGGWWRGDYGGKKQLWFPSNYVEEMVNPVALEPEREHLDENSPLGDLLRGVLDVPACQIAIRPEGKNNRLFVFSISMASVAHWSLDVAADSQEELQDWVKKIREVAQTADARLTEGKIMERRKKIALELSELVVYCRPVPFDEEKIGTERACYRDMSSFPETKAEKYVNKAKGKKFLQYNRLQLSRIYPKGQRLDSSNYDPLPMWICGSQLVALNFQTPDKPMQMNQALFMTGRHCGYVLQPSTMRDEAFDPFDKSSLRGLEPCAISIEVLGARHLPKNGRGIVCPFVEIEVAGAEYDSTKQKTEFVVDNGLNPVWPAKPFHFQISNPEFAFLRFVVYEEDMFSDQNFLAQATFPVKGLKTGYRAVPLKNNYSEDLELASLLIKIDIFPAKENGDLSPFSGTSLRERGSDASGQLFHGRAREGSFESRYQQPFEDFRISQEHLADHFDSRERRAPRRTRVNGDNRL
Method: T-cells (5×10^7 cells per condition) were stimulated with Ig-CD95L or cl-CD95L (100 ng/mL) for indicated times at 37° C. Cells were lysed, incubated with APO1.3 (1 ug/mL) for 15 min at 4° C. and CD95 was immunoprecipitated using A/G protein-coupled magnetic beads (Ademtech, Pessac, France) for 1 h. After extensive washing, the immune complex was resolved by SDS-PAGE and immunoblotting was performed with indicated antibodies.
Cells were lyzed for 30 minutes at 4° C. in lysis buffer (25 mM HEPES pH 7.4, 1% v/v Triton X-100, 150 mM NaCl, 2 mM EGTA supplemented with a mix of protease inhibitors (Sigma-Aldrich)). Protein concentration was determined by the bicinchoninic acid method (PIERCE, Rockford, Ill., USA) according to the manufacturer's protocol. Proteins were separated on a 12% SDS-PAGE and transferred to a nitrocellulose membrane (GE Healthcare, Buckinghamshire, England). The membrane was blocked 15 minutes with TBST (50 mM Tris, 160 mM NaCl, 0.05% v/v Tween 20, pH 7.8) containing 5% w/v dried skimmed milk (TBSTM). Primary antibody was incubated overnight at 4° C. in TBSTM. The membrane was intensively washed (TBST) and then the peroxydase-labeled anti-rabbit or anti-mouse (SouthernBiotech, Birmingham, Ala., US) was added for 45 minutes. The proteins were visualized with the enhanced chemiluminescence substrate kit (ECL, GE Healthcare).

Row | interaction with PLCγ1 (co-immunoprecipitation) [4] | PLCγ1 recruitment to CD95 ([4]; CD95L 100 ng/mL) | Substance | calcium response to cl-CD95L [1] | initial phase of the calcium response to cl-CD95L [2] | calcium response to cl-CD95L [3]
1 |  |  | TAT peptide control: TAT control peptide, SEQ ID NO: 5 (RKKRRQRRRGGSIELDDPRPR; TAT-CONTROL) [reference compound] | did not significantly modify the calcium response | did not modify the initial phase | did not significantly modify the calcium response
2 | interacted with PLCγ1 | inhibited its recruitment to CD95 | CD95^(175-210)-mCherry: construct consisting of CD95 amino acids 175 to 210 (calcium-inducing domain) fused to mCherry, expressed in HEK cells (KRKEVQKTCRKHRKENQGSHESPTLNPETVAINLSD-mCherry) |  |  | 
